Results from paper PMC12320831, “Synthesis and Biological Evaluation of New Chalcogen Semicarbazone (S, Se) and Their Azole Derivatives against Chagas Disease” (Journal of Medicinal Chemistry, 2024).
Several values for one entry are separate records, joined by “and”; a condition that tells them apart may be missing. Equal values may be shown once. Read-outs that look alike come from different tables or passages of the source.

Experiments:
[1] = system: T. cruzi CAI/72 strain; test: Antiparasitic activity in C2C12 cells infected with T. cruzi CAI/72 (image-based assay); type: cell-based; conditions: for EC50: read-out: EC50 Tc CAI/72, intracellular amastigotes in C2C12 cells, 48 h, mean of three experiments in triplicate (n = 9) ± SD
[2] = biological target: T1, Recombinant human cathepsin L (hCatL) (Homo sapiens, UniProt P07711); test: Human cathepsin L inhibition assay (Z-FR-AMC substrate); type: biochemical
T1 construct: purchased R&D Systems 952-CY
Protocol: Compounds were screened at 10 μM. […] The experiment was performed for 30 min.
All experiments were accomplished in a 384-well black microplate, using a Synergy HTX (Biotek) plate reader at 25 °C with absorption/emission wavelengths of 360/460 nm. All assays were performed in triplicate wells and DMSO was used as a vehicle control. Enzymatic activity was measured and normalized to DMSO controls, and the inhibitor E-64 (10 μM) was used as a positive control for all assays. All experiments were performed in triplicates, with at least two independent assays (n = 6 data points). IC50 values were determined through nonlinear regression. Obtained data were treated and analyzed using GraphPad Prism 9.0 (GraphPad Software, La Jolla, California).

T1 sequence (P07711 114-333): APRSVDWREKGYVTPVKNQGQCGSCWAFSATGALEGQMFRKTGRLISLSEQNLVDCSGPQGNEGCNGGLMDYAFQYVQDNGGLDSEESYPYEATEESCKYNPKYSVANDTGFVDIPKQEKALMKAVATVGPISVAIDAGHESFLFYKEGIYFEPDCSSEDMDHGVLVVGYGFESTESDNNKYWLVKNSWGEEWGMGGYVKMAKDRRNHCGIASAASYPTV

## C/C(=N\Nc1nc(C)c[se]1)c1cccc([N+](=O)[O-])c1.Cl [Se2h, (E)-4-Methyl-2-(2-(1-(3-nitrophenyl)ethylidene)hydrazineyl)-1,3-selenazole Hydrochloride]
[1]; Trypanosoma cruzi, C2C12, read-out: Anti-Tc CAI/72 activity (%)
  inhibition at 10 µM: 57.7%
[1]
  EC50: 310 ± 180 nM
[1]; listed as Se 2h
  EC50: < 1000 nM
[2]; 10 µM
  inhibition at 10 µM: 92.2%
[2]; each of two biological replicates in triplicate, read-out: IC50 hCatL, single biological replicate (Figure 4)
  IC50: 1320 nM and 1360 nM
[2]; mean of two experiments in triplicate (n = 6) ± SEM, read-out: IC50 hCatL
  IC50: 1340 ± 18 nM
